IC50 data for two compounds are collected here from paper PMC6161599, “Inhibition of O-acetylserine sulfhydrylase by fluoroalanine derivatives” (Journal of Enzyme Inhibition and Medicinal Chemistry, 2018).

What all share (type): biochemical
Assay [1] addresses T1, O-acetylserine sulfhydrylase A (OASS-A, CysK) (Salmonella enterica, UniProt P0A1E3).
T1 construct: recombinant STOASS-A, His-tag removed with factor Xa
Description: ninhydrin cysteine activity assay; inactivation kinetics; PLP absorbance and fluorescence changes.

Assay [2] addresses T2, O-acetylserine sulfhydrylase B (OASS-B, CysM) (Salmonella enterica, UniProt P29848).
T2 construct: recombinant STOASS-B, His-tag removed with factor Xa
The description is as above.

For assay [3], the target named is T1, O-acetylserine sulfhydrylase A (OASS-A, CysK). Description: ninhydrin cysteine activity assay; PLP absorbance ([…] to […] nm) and fluorescence changes.
In assay [4] the target is T2, O-acetylserine sulfhydrylase B (OASS-B, CysM). Description: ninhydrin cysteine activity assay; PLP absorbance and fluorescence changes.

T2 sequence (P29848 whole entry): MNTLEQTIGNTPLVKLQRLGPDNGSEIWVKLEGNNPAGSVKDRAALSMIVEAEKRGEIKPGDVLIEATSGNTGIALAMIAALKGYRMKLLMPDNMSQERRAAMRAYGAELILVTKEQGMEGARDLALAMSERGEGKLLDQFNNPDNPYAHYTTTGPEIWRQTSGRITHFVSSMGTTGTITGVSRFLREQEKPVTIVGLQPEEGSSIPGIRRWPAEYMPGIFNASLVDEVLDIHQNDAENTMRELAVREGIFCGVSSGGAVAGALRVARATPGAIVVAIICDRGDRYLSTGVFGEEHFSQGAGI
T1 sequence (P0A1E3 2-323): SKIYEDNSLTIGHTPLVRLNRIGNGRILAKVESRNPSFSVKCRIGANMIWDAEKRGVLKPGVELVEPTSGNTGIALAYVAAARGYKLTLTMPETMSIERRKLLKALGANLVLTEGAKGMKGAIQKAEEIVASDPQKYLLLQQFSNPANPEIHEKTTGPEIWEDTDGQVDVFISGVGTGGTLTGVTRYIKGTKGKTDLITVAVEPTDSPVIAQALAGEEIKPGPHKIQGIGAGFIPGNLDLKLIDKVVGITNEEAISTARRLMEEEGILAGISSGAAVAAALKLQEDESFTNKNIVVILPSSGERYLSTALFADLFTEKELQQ

A word on the IC50: it is the concentration at which inhibition is half-maximal. For the compound `N[C@H](C(=O)O)C(F)(F)F` [triF-Ala, β,β,β-trifluoroalanine], the IC50 in assay [1] turned out to be 130 ± 10 µM; in assay [2], 940 ± 60 µM.
As for `NC(CF)C(=O)O` (stereo not shown) [F-Ala, monofluoroalanine], the IC50 in assay [3] turned out to be 480 ± 50 µM; in assay [4], 1290 ± 230 µM.
